Test results: US9526680B2, “Method for searching for malodor control agent, malodor control agent, and malodor control method” (Kao Corporation, priority 2010, dated 2016)

Molecular target: T1, OR10A6 (Homo sapiens, UniProt Q8NH74)
T1 construct: expressed in transfected cells; host or cells: HEK293
T1 sequence (Q8NH74 1-314): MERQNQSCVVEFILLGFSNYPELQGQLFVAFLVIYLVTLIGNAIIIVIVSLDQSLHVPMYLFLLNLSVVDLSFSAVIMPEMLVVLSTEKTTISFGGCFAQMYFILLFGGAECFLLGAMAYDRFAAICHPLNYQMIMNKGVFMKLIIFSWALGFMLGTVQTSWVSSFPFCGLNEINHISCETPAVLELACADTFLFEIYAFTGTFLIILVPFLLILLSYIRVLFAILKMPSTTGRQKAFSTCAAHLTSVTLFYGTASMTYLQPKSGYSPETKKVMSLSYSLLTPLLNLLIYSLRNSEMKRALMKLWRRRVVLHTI
Test: Luciferase reporter gene assay, OR10A6 expressed in HEK293 cells
Assay type: cell-based
Conditions: response to hexanoic acid; test substance added together with hexanoic acid; HEK293
Procedure: Cloning of human olfactory receptors was performed based on the sequence information registered in GenBank, through PCR with human genomic DNA female (G1521: Promega) as a template. Each of the genes amplified through PCR was inserted into a pENTR vector (Invitrogen) according to an instruction manual. Then, the gene-inserted vector was digested with NotI and AscI, and the obtained fragments were inserted into NotI and AscI sites located downstream of the Flag-Rho tag sequence in the pME18S vector.
Each of the 350 types of human olfactory receptors was expressed in HEK293 cells. A reaction solution having a composition shown in Table 2 was prepared on a clean bench, and left to stand for 15 minutes. The solution was dispensed to each well of a 96-well plate (BD). Subsequently, […] cells (100 μL, 3×10^5 cells/cm^2) were seeded in each well and cultured for 24 hours in an incubator at 37° C. and under 5% CO2 conditions.
The olfactory receptor expressed in HEK293 cell was conjugated with cell-intrinsic Gas to activate adenylate cyclase, and thereby the level of intracellular cAMP was increased. For the measurement of the response to odor in this study, the luciferase reporter gene assay was used, in which an increase in the amount of intracellular cAMP was monitored by using the emission value originating from firefly luciferase gene (fluc2P-CRE-hygro) as an indicator. Furthermore, a gene product obtained by fusing renilla luciferase gene in the downstream of CMV promoter (hRluc-CMV) was simultaneously introduced, and this was used as an internal standard for correcting an error in the transgenesis efficiency or the number of cells. The medium was removed from the culture prepared in the above-described section 3) by using a Pipetman, and 75 μl of a solution containing an odor substance (1 mM hexanoic acid or 300 μM nonanoic acid) prepared in CD293 medium (Invitrogen) was added thereto. The cells were cultured for 4 hours in a CO2 incubator, and the luciferase gene was sufficiently expressed in the cells. For the measurement of luciferase activity, the measurement was carried out by using a Dual-Glo™ luciferase assay system (Promega) according to the operation manual of the product. A value calculated by dividing the emission value, derived from a firefly luciferase induced by the stimulation with an odor substance, by the emission value in cells that were not-stimulated with an odor substance, was designated as a fold increase, and used as an index of response intensity.
OR2W1, OR10A6, OR51E1, OR51I2, and OR51L1 were respectively expressed in HEK293 cells by the same method as that used in Example 1, and a luciferase assay was carried out. In the luciferase assay, hexanoic acid was used as the odorous substance, and test substances were added together with hexanoic acid. The response of the olfactory receptors to hexanoic acid was measured, and a decrease in the receptor response to the addition of test substances was evaluated.
The inhibition ratios of the receptor response to test substances were calculated as follows. The emission value (Y) obtained from the cells in which the same receptors were introduced but no odor stimulation was conducted, was subtracted from the emission value derived from firefly luciferase (X) induced by odor stimulation with hexanoic acid alone. Similarly, the emission value (Y) obtained from the cells in which no odor stimulation was conducted, was subtracted from the emission value (Z) caused by stimulation with a mixture of hexanoic acid and a test substance. By the following calculation formula, the inhibitory activity of the test substance to receptor response was calculated based on the increment of the emission value (X−Y) caused by stimulation of hexanoic acid alone. Multiple independent experiments were performed in duplicate, and the average of each experiment was obtained. Inhibition ratio (%)={1−(Z−Y)/(X−Y)}×100

2,4,6-trimethyl-3-cyclohexene-1-carboxyaldehyde, 3,5,6-trimethyl-3-cyclohexene-1-carboxyaldehyde [Isocyclocitral]
Inhibition ratio of OR10A6 response: 1 (Inhibition ratio: 50% or higher)
